Experiment [1] deals with APP α-secretase cleavage. Nature of the experiment: Western blot of APP CTFs and sAPP-α in SweAPP N2a cells (Examples 6-7, with or without siRNA knock-down). The class given is cell-based, murine. Conditions: various doses of EGCG, 8 h. The text has this:
FIGS. 8A-8H show EGCG-induced ADAM10 activation correlates with APP α-secretase cleavage in vitro. […] Data were represented as % change relative to control (medium from cultured SweAPP N2a cells or primary neuronal cells without any treatment).
FIGS. 10A-10C show ADAM10 is required for EGCG-induced APP α-secretase cleavage. […] In FIG. 10A, cell lysates were subjected to WB for APP CTFs and ADAM10 cleavage analyses. […] In FIG. 10B, cell culture media were subjected to WB for sAPP-α secretion. […] In FIG. 10C, cell culture media were subjected to Aβ ELISA. Data are represented as % change relative to control (medium from cultured SweAPP N2a cells without any treatment). […] Data are representative of three independent experiments.
Cultured cells were lysed in ice-cold lysis buffer described above, and an aliquot corresponding to 50 μg of total protein was electrophoretically separated using 16.5% Tris-tricine gels. […] Densitometric analysis was done using the Fluor-S MultiImager™ with Quantity One™ software (Bio-Rad). […]
SweAPP N2a cells were transfected with siRNA pre-designed to knock-down murine ADAM9, 10, or 17 mRNA (Dharmacon Inc. Lafayette, Colo.). […] Transfection efficiency was determined to be greater than 80% (data not shown) using no-RISC siGLOW (fluorescently labeled non-functional siRNA; Dharmacon). […] The cells were evaluated by Western blot analysis for expression of ADAM9, 10 or 17. […]
For orientation: In western blotting, separated proteins are transferred to a membrane and probed.

Experiment [2] has as its system ADAM10 mRNA. Nature of the experiment: RT-PCR of ADAM10 mRNA in SweAPP N2a cells. The class given is cell-based, murine. Conditions: various doses of EGCG, 8 h.
Protocol: Analysis of murine ADAM10 was conducted according to previously published methods (Ehrhart et al., 2005; Park et al., 2001). Briefly, total RNA was isolated from SweAPP N2a cells and subjected to reverse transcription utilizing a commercially available kit (cDNA Cycle® kit; Invitrogen, Carlsbad, Calif.) according to the manufacturer's instructions on a Bio-Rad iCycler thermocycler. […] Thermocycler conditions consisted of an initial denaturing step at 95° C. for 15 min, followed by 35 cycles of 94° C. for 30 s, 50° C. for 1 min, and 72° C. for 1 min at, and a final extension step at 72° C. for 10 min. Resolution and analysis of PCR products (murine ADAM10: 881 bp, murine γ-actin: 357 bp) band densities was conducted by ethidium bromide-stained agarose gel electrophoresis and identified using UV transillumination by comparisons with molecular weight markers (Invitrogen). Samples that were not subjected to reverse transcription were run in parallel as negative controls to rule out DNA contamination as a template for PCR products (data not shown). A “no template control” was also included for each primer set as a further negative control (data not shown). Amplification of γ-actin was used to normalize for input cDNA.

The text below walks through data of patent US20130261045A1, “GREEN TEA POLYPHENOL ALPHA SECRETASE ENHANCERS AND METHODS OF USE” (UNIVERSITY OF SOUTH FLORIDA, priority 2005, published 2013).

Turning to `O=C(O[C@@H]1Cc2c(O)cc(O)cc2O[C@@H]1c1cc(O)c(O)c(O)c1)c1cc(O)c(O)c(O)c1` [EGCG, (−)-epigallocatechin-3-gallate], in experiment [1], the sAPP-α entry is “dose-dependent increases” and the α-CTF entry is “dose-dependent increases”. The “ADAM10 mRNA levels” value in experiment [2] is recorded as “no significant between-EGCG dose differences”.
